Measured values published in ChEMBL document CHEMBL1132836, “2-Aryl tryptamines: selective high-affinity antagonists for the h5-HT2A receptor” (Bioorg Med Chem Lett, 2000).

Experiments:
[1] = biological target: 5-hydroxytryptamine receptor 2A (Homo sapiens, UniProt P28223); assay: Displacement of [3H]ketanserin from CHO cells expressing human 5-hydroxytryptamine 2A receptor.; format: cell-based
[2] = biological target: T1, 5-hydroxytryptamine receptor 2C (Homo sapiens, UniProt P28335); assay: Displacement of [H]-mesulergine from CHO cells expressing human 5-hydroxytryptamine 2C receptor.; format: cell-based
T1 sequence (P28335 whole entry): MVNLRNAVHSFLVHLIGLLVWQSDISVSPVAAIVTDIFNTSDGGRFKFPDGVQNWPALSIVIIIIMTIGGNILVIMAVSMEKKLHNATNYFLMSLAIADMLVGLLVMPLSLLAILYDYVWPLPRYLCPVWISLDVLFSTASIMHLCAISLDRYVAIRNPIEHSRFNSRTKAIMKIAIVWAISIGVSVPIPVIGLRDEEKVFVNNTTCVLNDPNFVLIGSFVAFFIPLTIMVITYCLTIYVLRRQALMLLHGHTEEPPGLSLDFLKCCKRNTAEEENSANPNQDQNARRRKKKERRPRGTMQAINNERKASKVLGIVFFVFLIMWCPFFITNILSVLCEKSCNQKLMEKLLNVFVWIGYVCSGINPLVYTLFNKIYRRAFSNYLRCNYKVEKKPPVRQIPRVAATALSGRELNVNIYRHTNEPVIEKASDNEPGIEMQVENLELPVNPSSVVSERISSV

[3] = biological target: D(2) dopamine receptor (Homo sapiens, UniProt P14416); assay: biochemical
Description: Displacement of [3H]spiperone from CHO cells expressing human Dopamine receptor D2.

**Q.** Which Ki [1] does the source give for `CCN(CC)CCc1c(-c2ccccc2)[nH]c2ccccc12` here?
**A.** 0.0028 µM

**Q.** And the Ki [2]?
**A.** 0.16 µM

**Q.** What about the Ki [3] of the same compound?
**A.** > 1 µM

**Q.** Which results are given for `c1ccc(-c2[nH]c3ccccc3c2CCN2CCC2)cc1`?
**A.** Ki [1]: 0.044 µM; Ki [2]: > 1 µM; Ki [3]: > 1 µM

**Q.** Which results are given for `C[C@@H]1CCCCN1CCc1c(-c2ccccc2)[nH]c2ccccc12`?
**A.** Ki [1]: 0.00018 µM; Ki [2]: 0.036 µM; Ki [3]: 0.021 µM

**Q.** For `c1ccc(-c2[nH]c3ccccc3c2CCN2CCCC2)cc1`, which Ki [1] is on record?
**A.** 0.009 µM

**Q.** And the Ki [2]?
**A.** 0.26 µM

**Q.** What about the Ki [3] of the same compound?
**A.** > 1 µM

**Q.** Which Ki [1] does the source give for `C[C@H]1CCCCN1CCc1c(-c2ccccc2)[nH]c2ccccc12` here?
**A.** 0.004 µM

**Q.** What about the Ki [2] of the same compound?
**A.** 0.23 µM

**Q.** And the Ki [3]?
**A.** 0.29 µM

**Q.** With `CCN(C)CCc1c(-c2cccc([N+](=O)[O-])c2)[nH]c2ccccc12` as the compound, how does the Ki [1] read?
**A.** 0.00014 µM

**Q.** What about the Ki [2] of the same compound?
**A.** 0.036 µM

**Q.** And the Ki [3]?
**A.** 0.039 µM

**Q.** What does the source list for `c1ccc(-c2[nH]c3ccccc3c2CCN2CCCCC2)cc1`?
**A.** Ki [1]: 0.0026 µM; Ki [2]: 0.268 µM; Ki [3]: 0.896 µM

**Q.** `CN(C)CCc1c(-c2ccccc2)[nH]c2ccccc12` was tested. Which Ki [1] did it give?
**A.** 0.0044 µM

**Q.** And the Ki [2]?
**A.** 0.18 µM

**Q.** And the Ki [3]?
**A.** > 1 µM

**Q.** What does the source list for `CCN(C)CCc1c(-c2ccco2)[nH]c2ccccc12`?
**A.** Ki [1]: > 1 µM; Ki [2]: > 1 µM; Ki [3]: > 1 µM
